Measured values reported in article PMC9519446, “Discovery of an Orally Active Benzoxaborole Prodrug Effective in the Treatment of Chagas Disease in Non-human Primates” (Nature microbiology, 2022).
pIC50: −log10 of the molar value. “And” between values parts separate entries of the source, which are not always exact repeats. Identical values can stand only once. Like-named read-outs stand apart in the source and are kept apart here.

How the values were obtained:
[1] = test system: CPSF3-OE T. cruzi intracellular amastigotes; experiment: microbe, parasite or virus in culture; assay type: cell-based; details: Trypanosoma cruzi, read-out: CPSF3-OE IC50, intracellular amastigotes
Description: (§1) The in vitro anti-T. cruzi amastiogote activity assay was performed and optimized based on the protocol described previously. The change in tdTomato fluorescence intensity was determined as a measurement of growth over 72 hours of culture. For assaying drug effects on extracellular amastigotes, trypomastigotes were collected from infected Vero cell cultures and converted in acidic media as previously described. Amastigotes (50,000/well) were incubated with 2-fold serial dilutions of compounds for 48 hours. The ATP production was used as an indication of growth in this case, and was measured by ATPlite Luminescence ATP Detection Assay System (PerkinElmer). Both fluorescence and luminescence were read using a BioTek Synergy Hybrid Multi-Mode reader equipped with the software Gene5 v 2.0 (BioTek). The dose-response curve was generated by […] analysis with GraphPad Prism v9.4.0 (GraphPad Software).
The CPSF3 gene was amplified using primers ‘[…]’ and ‘[…]’, and integrated into the pTrex vector [47] by NEBuilder HiFi DNA assembly (New England Biolabs). The construct of pTrex-CPSF was then transfected into Brazil tdTomato epimastigotes and selected by 60ug/ml blasticidin.
To confirm the CPSF overexpression in the selected transfectants, RNA was extracted as previously described and converted to cDNA using SuperScript Reverse Transcriptase (Invitrogen). Quantitative PCR reactions were performed in triplicate on the C1000 Touch Bio-Rad CFX96 real-time PCR detection system for CPSF using primer sets CPSF-1 (5'-[…]-3' and 5'-[…]-3') and CPSF-2 (5'-[…]-3' and 5'-[…]-3') in both control and CPSF over-expressing parasites, and the expression level was normalized to tubulin which was amplified using primers: ‘[…]’ and ‘[…]’.

[2] = test system: representative cytochrome P450 enzymes; experiment: Cytochrome P450 inhibition; assay type: in vitro ADME; details: 10 uM
[3] = test system: TcCBP KO T. cruzi extracellular amastigotes; experiment: Extracellular amastigote assay with serine carboxypeptidase knockout T. cruzi; assay type: cell-based, Trypanosoma cruzi; details: for % of maximum: Fig 2.c, TcCBP KO
Description: as §1
The CBPs knockout was produced using ribonucleoprotein (RNP) complexes as previously described. Briefly, Brazil tdTomato strain epimastigotes were electroporated with RNP complexes containing SaCas9 and an sgRNA targeting CBP gene TcBrA4_0048170, plus a repair template containing stop codons in all three reading frames and the M13 sequence for use as a PCR anchor. The sgRNA targeted the ‘[…]” sequence. After 2 days of recovery, single-cell clones were derived by depositing epimastigotes into a 96-well plate at a density of 0.5 cell/well by using a MoFlo Astrios EQ cell sorter (Beckman Coulter). DNA isolation was performed for clones, and primer pair of 5’-[…]-3’ and 5’- […] -3’ was used for amplifying the wild type allele, while primer pair of M13-F: 5’- […] -3’ and 5’- […] -3’ was used for amplifying the mutant allele.

[4] = test system: T. cruzi intracellular amastigotes; experiment: In vitro anti-T. cruzi intracellular amastigote growth inhibition assay (tdTomato fluorescence over 72 hours, Vero cells); assay type: cell-based, Trypanosoma cruzi
Description: as §1

T. cruzi Brazil strain = experiment: Mouse cure assays (daily oral treatment, immunosuppression, qPCR of skeletal muscle, blood microscopy, hemoculture); assay type: in vivo, C57BL/6 mice; details: for Parasite equivalent/ 50 ng of DNA of skeletal muscle: individual mice; for Parasite Equivalents/50ng of DNA of skeletal muscle: individual animals
Description: Male or female C57BL/6 mice were intraperitoneally infected with 10^4 trypomastigotes of the Brazil strain. Mouse infection was confirmed at 25-30 dpi by detection of CD8^+ T cells specific against the T. cruzi TSKb20 peptide in blood. Compounds resuspended in 1% carboxymethyl cellulose and 0.1% Tween 80, were administered daily by gavage at the specified concentrations. In order to optimally detect persistent infection, immune responses in the mice were suppressed by intraperitoneal injection of four doses of cyclophosphamide every 2-3 days (200 mg/kg/day), beginning one week after the end of therapeutic treatment. At the end of the immunosuppression regimen, peripheral blood was checked under light microscope for parasites and cultured in LDNT media. Mouse skeletal muscle samples were obtained at the end of the immunosuppression and processed for T. cruzi-DNA detection by qPCR as previously described.

[5] = test system: Luciferase-expressing T. cruzi (Brazil strain); experiment: In vivo killing time assay (footpad bioluminescence); parameters: species or system C57BL/6 mice; details: for Bioluminiscence signal of the feet of mice infected with Luciferase expresssing T. cruzi: individual feet
Description: C57BL/6 mice were infected with 2.5x10^5 Luciferase-expressing T. cruzi (Brazil strain) in the foot pads, and two days later one oral dose of AN14353 (25 mg/kg) was administered. The bioluminescent signal in the feet after i.p. injection of D-luciferin (PerkinElmer; 250mg/kg) was measured in a Lumina II IVIS imager (PerkinElmer).

[6] = In vitro micronucleus study; assay type: cell-based
[7] = test system: broad array of mammalian enzymes, receptors and ion channels; experiment: Preliminary safety pharmacology panel; assay type: binding
[8] = Plasma protein binding (rat); assay type: in vitro ADME
[9] = Trypanosoma cruzi, Vero, read-out: WT IC50, WT intracellular amastigotes, control of CPSF3-OE comparison
[10] = Trypanosoma cruzi, Vero, in vitro, Fig. 1a, Extended Data Fig. 1a, read-out: T. cruzi IC50
[11] = Fig. 3b, mice treated for 40 days
[12] = Fig. 3c, mice treated for 20 days

Compound: Cc1c(C(=O)NC(C(=O)OCc2ccc(F)c(F)c2)C(C)C)ccc2c1B(O)OC2 (stereo not drawn) [AN14353]
- pIC50 [1]: 8.72
- inhibition of representative cytochrome P450 enzymes [2]: did not demonstrate significant inhibition
- % of maximum ([3]; 0.00): 11% and 2% and 8%
- % of maximum ([3]; 0.30): 1% and -4% and 3%
- % of maximum ([3]; -0.30): 1% and 9%
- % of maximum ([3]; -0.60): 14% and 11% and 5%
- % of maximum ([3]; -0.90): 20% and 18% and 16%
- % of maximum ([3]; -1.20): 31% and 40% and 33%
- % of maximum ([3]; -1.51): 54% and 51% and 59%
- % of maximum ([3]; -1.81): 101% and 104% and 95%
- % of maximum ([3]; -2.11): 106% and 104% and 96%
- % of maximum ([3]; -2.41): 101% and 104%
- % of maximum ([3]; -2.71): 100% and 102%
- pIC50 ([3]; Trypanosoma cruzi, read-out: TcCBP KO IC50): 7.35
- pIC50 [4, 9]: 9.30
- pIC50 [4, 10]: 8.22
- outcome of cure assay (T. cruzi Brazil strain; 25 mg/kg, 40 day treatment, wild-type mice and immunodeficient mice): could consistently resolve established T. cruzi infections
- Parasite equivalent/ 50 ng of DNA of skeletal muscle (T. cruzi Brazil strain; [11]): 0.00339 Parasite equivalent/ 50 ng of DNA and 0.0112 Parasite equivalent/ 50 ng of DNA and 0.00674 Parasite equivalent/ 50 ng of DNA and 0.0326 Parasite equivalent/ 50 ng of DNA and 0.00218 Parasite equivalent/ 50 ng of DNA and 6.96e-5 Parasite equivalent/ 50 ng of DNA and 0.03 Parasite equivalent/ 50 ng of DNA
- Parasite equivalent/ 50 ng of DNA of skeletal muscle (T. cruzi Brazil strain; [12]): 3.39 Parasite equivalent/ 50 ng of DNA and 0.89 Parasite equivalent/ 50 ng of DNA and 0.07 Parasite equivalent/ 50 ng of DNA and 1.14 Parasite equivalent/ 50 ng of DNA and 0.69 Parasite equivalent/ 50 ng of DNA and 1.27 Parasite equivalent/ 50 ng of DNA
- Parasite Equivalents/50ng of DNA of skeletal muscle (T. cruzi Brazil strain; IFNg KO mice): 0.000877 Parasite Equivalents/50ng of DNA and 0.0011 Parasite Equivalents/50ng of DNA and 0.000197 Parasite Equivalents/50ng of DNA and 0.013 Parasite Equivalents/50ng of DNA and 0.002 Parasite Equivalents/50ng of DNA and 0.00327 Parasite Equivalents/50ng of DNA and 0.004 Parasite Equivalents/50ng of DNA and 0.00265 Parasite Equivalents/50ng of DNA and 0.000622 Parasite Equivalents/50ng of DNA
- Parasite Equivalents/50ng of DNA of skeletal muscle (T. cruzi Brazil strain; mice, 10 mg/kg): 0.00752 Parasite Equivalents/50ng of DNA and 0.05 Parasite Equivalents/50ng of DNA and 0.00 Parasite Equivalents/50ng of DNA
- Parasite Equivalents/50ng of DNA of skeletal muscle (T. cruzi Brazil strain; mice, 25 mg/kg): 0.00369 Parasite Equivalents/50ng of DNA and 0.00 Parasite Equivalents/50ng of DNA and 0.00185 Parasite Equivalents/50ng of DNA and 0.0154 Parasite Equivalents/50ng of DNA
- genotoxicity, Ames (Ames study): non-genotoxic
- Bioluminiscence signal of the feet of mice infected with Luciferase expresssing T. cruzi ([5]; dpi 0): 38900 and 50000 and 58900 and 53200 and 27400 and 49600
- Bioluminiscence signal of the feet of mice infected with Luciferase expresssing T. cruzi ([5]; dpi 6): 16800 and 26800 and 41700 and 19800 and 27400 and 55100
- Bioluminiscence signal of the feet of mice infected with Luciferase expresssing T. cruzi ([5]; dpi 12): 53200 and 26000 and 25400 and 27200 and 20400 and 32200
- Bioluminiscence signal of the feet of mice infected with Luciferase expresssing T. cruzi ([5]; dpi 24): 28700 and 38600 and 17100 and 17600 and 12200 and 16200
- Bioluminiscence signal of the feet of mice infected with Luciferase expresssing T. cruzi ([5]; dpi 30): 38600 and 26900 and 29300 and 28500 and 15800 and 33500
- Bioluminiscence signal of the feet of mice infected with Luciferase expresssing T. cruzi ([5]; dpi 48): 13500 and 15700 and 12600 and 12800 and 9070 and 11900
- Bioluminiscence signal of the feet of mice infected with Luciferase expresssing T. cruzi ([5]; dpi 72): 90400 and 76200 and 47100 and 14600 and 38700 and 41000
- in vivo trypanocidal activity (killing time) ([5]; single oral dose 25 mg/kg): rapid in vivo trypanocidal activity
- oral absorption (in words) (Pharmacokinetics in mice; mice, dose proportionality evaluation): solubility-limited absorption
- dose proportionality of exposure (Pharmacokinetics in mice; mice, oral): lack of dose
- genotoxicity, in vitro micronucleus [6]: non-genotoxic
- affinity for mammalian enzymes, receptors and ion channels [7]: little to no affinity

Compound: Cc1c(C(=O)N[C@H](C(=O)OCC2CCOCC2)C(C)C)ccc2c1B(O)OC2 [AN15368]
- pIC50 [1]: 7.93
- inhibition of representative cytochrome P450 enzymes [2]: did not demonstrate significant inhibition
- % of maximum ([4]; Fig 5.d, WT, [uM] 0.60): -2%
- activity at 0.6 µM ([4]; Trypanosoma cruzi, Vero, 72 h, read-out: % of maximum, Fig 5.d, WT, [uM] 0.60): -2%
- pIC50 ([4]; Trypanosoma cruzi, Vero, 120 h, read-out: WT IC50, WT intracellular amastigotes, control of CPSF3 mutant comparison, Fig. 5d): 7.92
- pIC50 [4, 9]: 8.62
- pIC50 ([4]; Trypanosoma cruzi, Vero, read-out: WT IC50, WT intracellular amastigotes, control of TcCBP KO comparison): 8.62
- pIC50 [4, 10]: 8.30
- minimal efficacious dose in mice (T. cruzi Brazil strain; 40 day treatment cure assay, Fig 3e): 2.5 mg/kg
- Parasite equivalent/ 50 ng of DNA of skeletal muscle (T. cruzi Brazil strain; [11]): 0.0182 Parasite equivalent/ 50 ng of DNA and 0.32 Parasite equivalent/ 50 ng of DNA and 0.00408 Parasite equivalent/ 50 ng of DNA and 0.015 Parasite equivalent/ 50 ng of DNA and 0.12 Parasite equivalent/ 50 ng of DNA and 0.09 Parasite equivalent/ 50 ng of DNA and 0.06 Parasite equivalent/ 50 ng of DNA
- Parasite equivalent/ 50 ng of DNA of skeletal muscle (T. cruzi Brazil strain; [12]): 0.60 Parasite equivalent/ 50 ng of DNA and 0.12 Parasite equivalent/ 50 ng of DNA and 6.19 Parasite equivalent/ 50 ng of DNA and 0.32 Parasite equivalent/ 50 ng of DNA and 0.45 Parasite equivalent/ 50 ng of DNA
- Parasite equivalent/ 50 ng of DNA of skeletal muscle (T. cruzi Brazil strain; Fig. 3e, mice treated for 40 days with 2.5 mg/kg, 2.5 mg/kg): 0.7074 Parasite equivalent/ 50 ng of DNA and 0.07409 Parasite equivalent/ 50 ng of DNA and 0.06686 Parasite equivalent/ 50 ng of DNA and 0.2452 Parasite equivalent/ 50 ng of DNA and 0.02329 Parasite equivalent/ 50 ng of DNA and 2.237 Parasite equivalent/ 50 ng of DNA and 0.1466 Parasite equivalent/ 50 ng of DNA
- outcome of cure assays (T. cruzi Brazil strain; mice, Fig. 3): cures T. cruzi infection in mice
- Funbound (rat) [8]: 10%
- genotoxicity, Ames (Ames study): non-genotoxic
- exposure AUC0-last (Pharmacokinetics in mice; mice, 10mg/kg dose): 17.5 µg·h/kg
- minimal curative exposure in mice (Pharmacokinetics in mice; mouse, in vivo, 2.5 mg/kg): 4.375 µg·h/kg
- genotoxicity, in vitro micronucleus [6]: non-genotoxic
- affinity for mammalian enzymes, receptors and ion channels [7]: little to no affinity
